Measurements: US20230079819A1, “COMPOUNDS AND USES THEREOF” (Foghorn Therapeutics Inc., priority 2019, published 2023)

What was measured:
[1] = target: T1, BRM (Homo sapiens, UniProt P51531); assay: ATPase catalytic activity of BRM, ADP-Glo in vitro biochemical assay; settings: ATPase catalytic activity, 30 nM BRM, 400 μM ATP, read-out: BRM IP50
T1 construct: made in house; host or cells: High Five insect cells

[2] = target: T2, BRG-1 (Homo sapiens, UniProt P51532); assay: ATPase catalytic activity of BRG-1, ADP-Glo in vitro biochemical assay; settings: ATPase catalytic activity, 30 nM BRG-1, 400 μM ATP, read-out: BRG1 IP50
T2 construct: made in house; host or cells: High Five insect cells
T2 sequence (P51532 whole entry): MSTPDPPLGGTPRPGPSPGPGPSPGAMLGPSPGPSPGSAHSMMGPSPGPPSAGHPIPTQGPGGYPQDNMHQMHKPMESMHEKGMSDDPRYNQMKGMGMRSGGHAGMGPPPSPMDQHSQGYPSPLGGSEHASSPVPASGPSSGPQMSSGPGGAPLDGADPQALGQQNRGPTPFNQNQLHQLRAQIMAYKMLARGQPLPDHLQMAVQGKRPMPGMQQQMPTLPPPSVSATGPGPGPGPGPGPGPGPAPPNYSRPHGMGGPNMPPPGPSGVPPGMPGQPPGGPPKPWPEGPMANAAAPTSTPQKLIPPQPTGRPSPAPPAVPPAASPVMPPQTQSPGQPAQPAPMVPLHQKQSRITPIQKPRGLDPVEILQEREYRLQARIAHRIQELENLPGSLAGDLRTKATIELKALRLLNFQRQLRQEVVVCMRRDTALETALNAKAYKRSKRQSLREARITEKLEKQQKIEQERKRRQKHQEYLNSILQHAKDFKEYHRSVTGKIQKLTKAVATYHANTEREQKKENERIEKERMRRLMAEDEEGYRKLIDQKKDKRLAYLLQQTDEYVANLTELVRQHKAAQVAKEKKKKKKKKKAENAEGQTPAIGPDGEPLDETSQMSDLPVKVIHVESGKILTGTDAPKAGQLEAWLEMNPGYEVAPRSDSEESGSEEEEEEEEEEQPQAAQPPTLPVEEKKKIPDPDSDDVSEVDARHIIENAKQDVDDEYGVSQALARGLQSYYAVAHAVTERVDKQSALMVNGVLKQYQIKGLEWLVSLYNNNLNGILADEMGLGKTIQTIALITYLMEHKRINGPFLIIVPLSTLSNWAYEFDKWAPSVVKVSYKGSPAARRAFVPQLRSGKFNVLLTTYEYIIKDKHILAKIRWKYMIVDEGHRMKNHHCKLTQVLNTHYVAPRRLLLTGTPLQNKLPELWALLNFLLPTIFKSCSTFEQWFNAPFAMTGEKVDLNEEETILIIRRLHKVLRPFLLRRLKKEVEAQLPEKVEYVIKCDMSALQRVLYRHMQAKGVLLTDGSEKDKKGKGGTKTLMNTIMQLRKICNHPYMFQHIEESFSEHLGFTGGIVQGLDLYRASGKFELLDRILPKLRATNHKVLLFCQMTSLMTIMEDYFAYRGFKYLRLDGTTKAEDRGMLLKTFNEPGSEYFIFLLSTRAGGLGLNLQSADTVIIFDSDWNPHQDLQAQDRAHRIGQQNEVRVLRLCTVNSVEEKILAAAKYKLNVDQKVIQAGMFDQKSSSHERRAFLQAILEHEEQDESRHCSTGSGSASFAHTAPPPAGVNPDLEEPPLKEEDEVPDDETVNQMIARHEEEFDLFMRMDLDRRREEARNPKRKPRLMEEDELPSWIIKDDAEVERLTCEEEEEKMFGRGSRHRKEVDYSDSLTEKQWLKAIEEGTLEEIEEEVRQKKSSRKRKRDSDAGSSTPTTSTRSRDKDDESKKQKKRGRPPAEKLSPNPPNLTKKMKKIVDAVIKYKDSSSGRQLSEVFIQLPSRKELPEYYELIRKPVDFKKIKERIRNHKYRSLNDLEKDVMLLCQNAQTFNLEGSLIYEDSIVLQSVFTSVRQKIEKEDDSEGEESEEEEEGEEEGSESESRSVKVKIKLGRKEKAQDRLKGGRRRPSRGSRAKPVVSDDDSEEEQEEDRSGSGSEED

T1 sequence (P51531 whole entry): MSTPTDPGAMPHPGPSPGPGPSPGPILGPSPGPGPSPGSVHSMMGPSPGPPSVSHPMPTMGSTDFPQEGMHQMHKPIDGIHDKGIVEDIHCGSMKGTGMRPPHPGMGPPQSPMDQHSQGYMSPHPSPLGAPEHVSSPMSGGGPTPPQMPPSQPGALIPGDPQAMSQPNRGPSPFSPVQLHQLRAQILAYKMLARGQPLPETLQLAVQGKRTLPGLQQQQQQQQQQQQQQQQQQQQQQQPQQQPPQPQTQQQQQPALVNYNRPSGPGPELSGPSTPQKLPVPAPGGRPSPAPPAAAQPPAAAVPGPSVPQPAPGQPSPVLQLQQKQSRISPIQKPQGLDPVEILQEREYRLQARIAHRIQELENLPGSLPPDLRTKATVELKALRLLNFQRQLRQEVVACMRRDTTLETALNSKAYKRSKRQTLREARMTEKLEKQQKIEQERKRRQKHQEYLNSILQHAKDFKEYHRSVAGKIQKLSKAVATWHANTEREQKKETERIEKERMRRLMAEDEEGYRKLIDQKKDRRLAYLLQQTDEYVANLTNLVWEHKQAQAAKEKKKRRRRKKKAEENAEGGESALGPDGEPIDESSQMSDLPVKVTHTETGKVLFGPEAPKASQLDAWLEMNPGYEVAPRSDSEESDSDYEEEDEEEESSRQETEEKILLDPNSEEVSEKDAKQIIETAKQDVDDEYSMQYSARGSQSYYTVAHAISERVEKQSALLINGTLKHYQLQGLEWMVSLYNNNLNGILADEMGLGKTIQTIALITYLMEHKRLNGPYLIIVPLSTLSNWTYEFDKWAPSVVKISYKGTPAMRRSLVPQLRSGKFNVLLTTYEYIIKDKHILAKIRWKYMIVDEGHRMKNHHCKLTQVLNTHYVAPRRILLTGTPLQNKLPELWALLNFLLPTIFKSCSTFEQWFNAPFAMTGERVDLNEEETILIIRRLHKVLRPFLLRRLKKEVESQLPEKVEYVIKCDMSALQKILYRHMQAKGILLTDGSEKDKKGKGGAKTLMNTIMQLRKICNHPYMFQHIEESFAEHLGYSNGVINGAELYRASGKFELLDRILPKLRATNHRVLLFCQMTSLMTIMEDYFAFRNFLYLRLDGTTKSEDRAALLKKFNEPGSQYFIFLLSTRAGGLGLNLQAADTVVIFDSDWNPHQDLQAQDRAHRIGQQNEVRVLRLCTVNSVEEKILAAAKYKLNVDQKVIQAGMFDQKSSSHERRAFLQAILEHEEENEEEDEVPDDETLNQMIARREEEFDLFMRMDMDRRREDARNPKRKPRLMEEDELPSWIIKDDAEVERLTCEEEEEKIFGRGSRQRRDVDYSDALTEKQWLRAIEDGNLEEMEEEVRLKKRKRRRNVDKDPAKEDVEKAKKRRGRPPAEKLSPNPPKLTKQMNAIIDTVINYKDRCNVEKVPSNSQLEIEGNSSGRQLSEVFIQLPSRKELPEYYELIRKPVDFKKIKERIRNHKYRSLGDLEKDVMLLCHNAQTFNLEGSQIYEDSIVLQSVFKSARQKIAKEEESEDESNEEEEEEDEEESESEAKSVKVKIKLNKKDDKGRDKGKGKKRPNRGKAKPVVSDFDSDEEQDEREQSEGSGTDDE

| IC50 [1] [nM] | IC50 [2] [nM] | SMILES |
| --- | --- | --- |
| > 10 | > 10 | Cn1cc2c(n1)CCN(c1cccc(-c3csc(NC(=O)CNC(=O)c4ccn(S(C)(=O)=O)c4)n3)c1)C2 [Compound 446] |
| > 10 | > 10 | Cn1cc(-c2cccc(-c3csc(NC(=O)CNC(=O)c4ccn(S(C)(=O)=O)c4)n3)c2)nn1 [Compound 447] |
| > 10 | > 10 | CC(C)(C)n1ccc(C(=O)NCC(=O)Nc2nc(-c3cccc(N4CC(O)C4)c3)cs2)c1 [Compound 448] |
| > 10 | > 10 | CS(=O)(=O)n1ccc(C(=O)NCC(=O)Nc2nc(-c3cccc(N4CCC(F)CC4)c3)cs2)c1 [Compound 449] |
| > 10 | > 10 | CS(=O)(=O)n1ccc(C(=O)NCC(=O)Nc2nc(-c3cccc(N4CCO[C@H](CO)C4)c3)cs2)c1 [Compound 450] |
| > 100 | > 100 | CS(=O)(=O)n1ccc(C(=O)NCC(=O)Nc2nc(-c3cccc(N4CCN(C5COC5)CC4)c3)cs2)c1 [Compound 451] |
| > 10 | > 10 | CS(=O)(=O)n1ccc(C(=O)NCC(=O)Nc2nc(-c3cccc(N4CCO[C@@H](CO)C4)c3)cs2)c1 [Compound 452] |
| > 10 | > 10 | COC[C@H](NC(=O)c1ccn(C2(C)COC2)c1)C(=O)Nc1nc(-c2ccc3ccn(C)c(=O)c3c2)cs1 [Compound 453] |
| > 10 | > 10 | CS(=O)(=O)n1ccc(C(=O)NCC(=O)Nc2nc(-c3cc(F)cc(OC4CC4)c3)cs2)c1 [Compound 455] |
| < 10 | > 10 | C[C@@H]1CN(c2cccc(-c3csc(NC(=O)CNC(=O)c4ccn(C5(C#N)CC5)c4)n3)n2)C[C@H](C)O1 [Compound 458] |
| > 10 | > 10 | COC[C@H](NC(=O)c1ccn(S(C)(=O)=O)c1)C(=O)Nc1nc(-c2cccc(OC(F)(F)F)c2)cs1 [Compound 459] |
| > 10 | > 10 | CS(=O)(=O)n1ccc(C(=O)NCC(=O)Nc2nc(-c3cccc(N4CCC(N)C(F)(F)C4)c3)cs2)c1 (centres unmarked) [Compound 460] |
| > 100 | > 100 | COC[C@H](NC(=O)c1ccn(S(C)(=O)=O)c1)C(=O)Nc1nc(-c2cccc(N3CCC3)c2)c(F)s1 [Compound 461] |
| > 10 | > 10 | COC[C@H](NC(=O)c1ccn(S(C)(=O)=O)c1)C(=O)Nc1nc(-c2cccc(-c3ccn(C)n3)c2)cs1 [Compound 462] |
| > 10 | > 10 | CS(=O)(=O)n1ccc(C(=O)NCC(=O)Nc2nc(-c3cccc(C(F)(F)F)c3)cs2)c1 [Compound 463] |
| > 10 | > 100 | CC(C)(C)n1ccc(C(=O)NCC(=O)Nc2nc(-c3cccc(C4COC4)c3)cs2)c1 [Compound 464] |
| > 10 | > 10 | CS(=O)(=O)n1ccc(C(=O)NCC(=O)Nc2nc(-c3cccc(C4COC4)c3)cs2)c1 [Compound 465] |
| > 10 | > 10 | COC[C@H](NC(=O)c1ccn(S(C)(=O)=O)c1)C(=O)Nc1nc(-c2cccc(C3COC3)c2)cs1 [Compound 466] |
| > 10 | > 10 | CS(=O)(=O)n1ccc(C(=O)NCC(=O)Nc2nc(-c3ccc4c(c3)N(C3CCOC3)CC4)cs2)c1 (centres unmarked) [Compound 467] |
| > 100 | > 100 | CC(C)N1CCc2ccc(-c3csc(NC(=O)CNC(=O)c4ccn(S(C)(=O)=O)c4)n3)cc21 [Compound 469] |

| IC50 [1] [nM] | IC50 [2] [nM] | SMILES |
| --- | --- | --- |
| > 10 | > 100 | Cn1ncc(-c2cccc(-c3csc(NC(=O)CNC(=O)c4ccn(C5(C)COC5)c4)n3)n2)n1 [Compound 470] |
| > 100 | > 100 | C[C@@H]1CN(c2cccc(-c3csc(NC(=O)CNC(=O)c4ccn(S(C)(=O)=O)c4)n3)c2)[C@@H](C)CO1 [Compound 471] |
| > 10 | > 10 | CS(=O)(=O)n1ccc(C(=O)NCC(=O)Nc2nc(-c3cccc(C4CC(F)(F)C4)c3)cs2)c1 [Compound 472] |
| > 10 | > 100 | N#CC1(n2ccc(C(=O)NCC(=O)Nc3nc(-c4cccc(N5CCC5)n4)cs3)c2)CC1 [Compound 473] |
| < 10 | < 10 | Cn1ccc2ccc(-c3csc(NC(=O)CNC(=O)c4ccn(C5(C#N)CC5)c4)n3)cc2c1=O [Compound 475] |
| > 10 | > 10 | N#CC1(n2ccc(C(=O)NCC(=O)Nc3nc(-c4cccc(N5CCC5)c4)cs3)c2)CC1 [Compound 476] |
| > 100 | > 100 | C[C@@H]1CN(c2cccc(-c3cccc(NC(=O)CNC(=O)c4ccn(S(C)(=O)=O)c4)c3F)c2)C[C@H](C)O1 [Compound 477, N-(2-((3′-(cis-2,6-dimethylmorpholino)-2-fluoro-[1,1′-biphenyl]-3-yl)amino)-2-oxoethyl)-1-(methylsulfonyl)-1H-pyrrole-3-carboxamide] |
| > 10 | > 10 | CC1COc2ccc(-c3csc(NC(=O)CNC(=O)c4ccn(S(C)(=O)=O)c4)n3)cc2N1C (centres unmarked) [Compound 478] |
| > 10 | > 10 | CO[C@H]1C[C@@H](c2cccc(-c3csc(NC(=O)CNC(=O)c4ccn(S(C)(=O)=O)c4)n3)c2)C1 [Compound 479] |
| > 100 | > 100 | CC(C)(C)n1ccc(C(=O)NCC(=O)Nc2nc(-c3cccc(C4CC(F)(F)C4)n3)cs2)c1 [Compound 481] |
| > 10 | > 10 | CC(C)(F)COc1cccc(-c2csc(NC(=O)CNC(=O)c3ccn(S(C)(=O)=O)c3)n2)c1 [Compound 483] |
| > 100 | > 100 | CC(C)(F)COc1cccc(-c2csc(NC(=O)CNC(=O)c3ccn(C4(C)COC4)c3)n2)c1 [Compound 484] |
| < 10 | < 10 | COC[C@H](NC(=O)c1ccn(C(C)(C)C)c1)C(=O)Nc1nc(-c2cc(C)c3ccn(C)c(=O)c3c2)cs1 [Compound 485] |
| > 10 | > 10 | CS(=O)(=O)n1ccc(C(=O)NCC(=O)Nc2nc(-c3ccc4c(c3)N(CC3COC3)CC4)cs2)c1 [Compound 486] |
| > 10 | > 10 | CS(=O)(=O)n1ccc(C(=O)NCC(=O)Nc2nc(-c3ccc4c(c3)N(CC(F)F)CC4)cs2)c1 [Compound 487] |
| > 100 | > 100 | C[C@H](NC(=O)c1ccn(C(C)(C)C)c1)C(=O)Nc1nc(-c2cccc(-c3cnn(C)n3)n2)cs1 [Compound 488] |
| > 10 | > 10 | CS(=O)(=O)n1ccc(C(=O)NCC(=O)Nc2nc(-c3ccnc(OC4CC4)c3)cs2)c1 [Compound 489] |
| > 10 | > 10 | Cn1ncc2ccc(-c3csc(NC(=O)CNC(=O)c4ccn(C(C)(C)C)c4)n3)cc2c1=O [Compound 492] |
| > 100 | > 100 | Cn1ccc2ccc(-c3csc(NC(=O)CNC(=O)c4ccn(C56CC(C5)C6)c4)n3)cc2c1=O [Compound 493] |
| > 10 | > 10 | Cn1cnc2ccc(-c3csc(NC(=O)CNC(=O)c4ccn(C(C)(C)C)c4)n3)cc2c1=O [Compound 494] |

| IC50 [1] [nM] | IC50 [2] [nM] | SMILES |
| --- | --- | --- |
| > 10 | > 100 | CC(C)(C)n1ccc(C(=O)NCC(=O)Nc2nc(-c3cccc(C4(CO)CC4)n3)cs2)c1 [Compound 495] |
| > 100 | > 100 | N#CC1(n2ccc(C(=O)NCC(=O)Nc3nc(-c4cccc(OC(F)(F)F)n4)cs3)c2)CC1 [Compound 496] |
| > 100 | > 100 | CC(C)(F)COc1cccc(-c2csc(NC(=O)CNC(=O)c3ccn(C4(C#N)CC4)c3)n2)n1 [Compound 498] |
| < 10 | < 10 | CS(=O)(=O)n1ccc(C(=O)NCC(=O)Nc2nc(-c3cccc(N4CCC4)c3F)cs2)c1 [Compound 499] |
| > 10 | > 100 | CS(=O)(=O)n1ccc(C(=O)NCC(=O)Nc2nc(-c3cccc(OC(F)(F)F)c3F)cs2)c1 [Compound 501] |
| > 10 | > 10 | CS(=O)(=O)n1ccc(C(=O)NCC(=O)Nc2nc(-c3cccc(OCC4(F)COC4)c3)cs2)c1 [Compound 502] |
| > 100 | > 100 | CC(C)(C)n1ccc(C(=O)NCC(=O)Nc2nc(-c3cccc(OC(F)(F)F)n3)cs2)c1 [Compound 503] |
| > 10 | > 10 | Cn1ccc2ccc(-c3csc(NC(=O)CNC(=O)c4ccn(C5(C)CCC5)c4)n3)cc2c1=O [Compound 504] |
| > 100 | > 100 | C[C@@]1(n2ccc(C(=O)NCC(=O)Nc3nc(-c4cccc(N5CCC5)c4)cs3)c2)CCOC1 [Compound 505] |
| > 10 | > 100 | C[C@]1(n2ccc(C(=O)NCC(=O)Nc3nc(-c4cccc(N5CCC5)c4)cs3)c2)CCOC1 [Compound 506] |
| > 10 | > 10 | CS(=O)(=O)n1ccc(C(=O)NCC(=O)Nc2nc(-c3cccc(OC4CCC4)c3F)cs2)c1 [Compound 507] |
| > 100 | > 100 | CC(C)(C)n1ccc(C(=O)NCC(=O)Nc2nc(-c3cccc(OCC4(F)COC4)c3)cs2)c1 [Compound 509] |
| > 10 | > 10 | CC1(n2ccc(C(=O)NCC(=O)Nc3nc(-c4ccc(F)c(N5CCC5)c4)cs3)c2)COC1 [Compound 510] |
| < 10 | < 10 | CS(=O)(=O)n1ccc(C(=O)NCC(=O)Nc2nc(-c3ccc(F)c(N4CCC4)c3)cs2)c1 [Compound 511] |
| > 100 | > 100 | CC(C)(C)n1ccc(C(=O)NCC(=O)Nc2nc(-c3cccc(OC(F)F)n3)cs2)c1 [Compound 512] |
| > 100 | > 100 | CO[C@H]1C[C@H](c2cccc(-c3csc(NC(=O)CNC(=O)c4ccn(C(C)(C)C)c4)n3)n2)C1 [Compound 514] |
| > 10 | > 100 | CO[C@H]1C[C@@H](c2cccc(-c3csc(NC(=O)CNC(=O)c4ccn(C(C)(C)C)c4)n3)n2)C1 [Compound 515] |
| > 10 | > 10 | N#CC1(n2ccc(C(=O)NCC(=O)Nc3nc(-c4ccc(F)c(N5CCC5)c4)cs3)c2)CC1 [Compound 516] |
